Measurements as given in US10070889B2, “Inorganic pyrophosphate and uses thereof” (The Curators of the University of Missouri, priority 2011, dated 2018).
Read-outs that look alike come from different tables or passages of the source. Where a SMILES comes first, the peptide text is derived from it. The star is where a group is joined. Cbz = O=C(OCc1ccccc1)*

Legend:
boar spermatozoa [1] = details: stored in BTS with 10 μM PPi
Experimental: Boar spermatozoa were washed twice with PBS-PVA, and sperm concentration was adjusted to 1×10^6 spermatozoa/ml in PBS-PVA. The sperm viability was assessed by LIVE/DEAD® Sperm Viability Kit (L-7011, Molecular Probes) which contains DNA dyes SYBR14 and propidium iodide (PI), following a manufacturer's protocol. Sperm samples (198 μl) were loaded onto a 96-well plate. SYBR14 (1 μl; final conc. 100 nM) and PI (1 μl; final conc. 12 μM) were added to sperm samples and incubated for 10 min at 37.5° C. in darkness. Flow cytometric analysis was performed using a Guava EasyCyte™ Plus flow cytometer (Guava Technologies, IMV Technologies, L'Aigle, France). For each sample, 5,000 events were analyzed by the Guava ExpressPro Assay program, using standard manufacturer settings. For assessment of sperm mitopotential, boar spermatozoa were stained with JC-1 (Cat. No. 4500-0250, MitoPotential Kit, IMV), and measured using manufacturer settings. For negative controls, DMSO or no staining solution was added to sperm samples.
Following an industry practice for boar semen storage, fresh boar semen was diluted in BTS extender and stored at room temperature (15-17° C.) for 10 days. […] As described above, sperm viability was assessed by flow cytometry using a SYBR14/PI viability kit and mitopotential was measured with JC-1 dye.

[2] = tested on: 20S chymotrypsin-like peptidyl-glutamylpeptide hydrolyzing [PGPH] activity; details: other treatments 363.1-386.1
Experimental: (§1) The proteasomal-proteolytic and deubiquitinating activities, which are essential for fertilization, were assayed using specific fluorometric substrates Z-LLL-AMC, Z-LLVY-AMC, Z-LLE-AMC and ubiquitin-AMCs in spermatozoa stored for 3 and 10 days, with or without PPi. Alternatively, 10 μM PPi+BTS was added to semen preserved without PPi at the time of assay (“Add PPi” treatment). As a negative control, 10 μM MG132 (a proteasomal inhibitor) was added to sperm samples before assay.
(§2) Spermatozoa preserved in BTS with and without 10 μM PPi were loaded into a 96-well black plate (final sperm conc. 1×10^6 spermatozoa/ml), and incubated at 37.5° C. with Z-LLE-AMC (a specific substrate for 20S chymotrypsin-like peptidyl-glutamylpeptide hydrolyzing [PGPH] activity not sensitive to MG132; final conc. 100 μM; Enzo Life Sciences, Plymouth, Pa.), Z-LLVY-AMC (a specific substrate for 20S proteasome and other chymotrypsin-like proteases, as well as calpains; final conc. 100 μM; Enzo), Z-LLL-AMC (a specific substrate for 20S chymotrypsin-like activity sensitive to proteasomal inhibitor MG132; final conc. 100 μM; BostonBiochem, Cambridge, Mass.) or ubiquitin-AMC (specific substrate for ubiquitin-C-terminal hydrolase activity; final conc. 1 μM; Enzo) for 1 h. Fluorogenic proteasomal core substrates are composed of a small peptide (LLL/LLE/LLVY) coupled to a fluorescent probe, aminomethylcoumarin (AMC). […] In the presence of appropriate 20S core activity, the AMC molecule is cleaved off and becomes fluorescent. This emitted fluorescence was measured every 10 min for a period of 1 h, yielding a curve of relative fluorescence (no units). Fluorescence intensity was measured by Thermo Fluoroskan Ascent (Thermo Scientific), using a 380 nm excitation and 460 nm emission.

[3] = tested on: 20S proteasome and other chymotrypsin-like proteases, as well as calpains; details: PPi+BTS and Add PPi treatments, 10 μM PPi; controls 85.7
Experimental: as §1, §2

[4] = tested on: ubiquitin-C-terminal hydrolase activity; details: PPi+BTS (stored with 10 μM PPi), day 10; other treatments 98.4-122.7
Experimental: as §1, §2

[5] = tested on: 20S chymotrypsin-like activity sensitive to proteasomal inhibitor MG132; experiment: Proteasomal activity of stored spermatozoa, fluorometric substrate Z-LLL-AMC; assay type: cell-based, boar
Experimental: Spermatozoa preserved in BTS with and without 10 μM PPi were loaded into a 96-well black plate (final sperm conc. 1×10^6 spermatozoa/ml), and incubated at 37.5° C. with Z-LLE-AMC (a specific substrate for 20S chymotrypsin-like peptidyl-glutamylpeptide hydrolyzing [PGPH] activity not sensitive to MG132; final conc. 100 μM; Enzo Life Sciences, Plymouth, Pa.), Z-LLVY-AMC (a specific substrate for 20S proteasome and other chymotrypsin-like proteases, as well as calpains; final conc. 100 μM; Enzo), Z-LLL-AMC (a specific substrate for 20S chymotrypsin-like activity sensitive to proteasomal inhibitor MG132; final conc. 100 μM; BostonBiochem, Cambridge, Mass.) or ubiquitin-AMC (specific substrate for ubiquitin-C-terminal hydrolase activity; final conc. 1 μM; Enzo) for 1 h. […] In the presence of appropriate 20S core activity, the AMC molecule is cleaved off and becomes fluorescent. This emitted fluorescence was measured every 10 min for a period of 1 h, yielding a curve of relative fluorescence (no units). Fluorescence intensity was measured by Thermo Fluoroskan Ascent (Thermo Scientific), using a 380 nm excitation and 460 nm emission.

[6] = tested on: porcine oocytes inseminated with boar spermatozoa; experiment: Porcine in vitro fertilization (IVF), total and polyspermic fertilization rates; assay type: cell-based
Experimental: Thereafter, 25-30 oocytes were placed into each of four 50 μl drops of the mTBM medium, which had been covered with mineral oil in a 35 mm polystyrene culture dish. The dishes were allowed to equilibrate in the incubator for 30 min until spermatozoa were added for fertilization. […] At the end of the washing procedure, the spermatozoa were resuspended in mTBM medium. After appropriate dilution, 50 μl of this sperm suspension was added to 50 μl of the medium that contained oocytes to give a final sperm concentrations of 1-10×10^5 spermatozoa/ml. Different concentrations of inorganic pyrophosphate (PPi; […], Sigma) were added to fertilization drops (final concentrations; 0-20 μM) at the time of sperm addition. Oocytes were co-incubated with spermatozoa for 6 h at 38.5° C., 5% CO2. At 6 h after IVF, oocytes were transferred into 100 μl NCSU23 containing 0.4% BSA ([…], Sigma) for further culture during 16-20 h.

[7] = tested on: boar spermatozoa bound to porcine oocyte zona pellucida
Experimental: Spermatozoa/oocytes were fixed in 2% formaldehyde for 40 min at room temperature, washed, permeabilized in PBS with 0.1% Triton-X-100 (PBS-TX), and blocked for 25 min in PBS-TX containing 5% normal goat serum. […] In order to count the number of spermatozoa bound to zona pellucida or acrosome reacted spermatozoa, oocyte were fixed and stained with DAPI and acrosome-binding lectin PNA-FITC (Molecular Probes) after IVF 30 min (5×10^5 spermatozoa/ml). Image acquisition was performed on a Nikon Eclipse 800 microscope (Nikon Instruments Inc., Melville, N.Y.) with Cool Snap camera (Roper Scientific, Tucson, Ariz.) and MetaMorph software (Universal Imaging Corp., Downington, Pa.).

boar spermatozoa [8] = details: BTS-IMV+10 μM PPi, day 6, vs all other groups
Experimental: Values are expressed as the mean±SEM. […] Values are expressed as the mean percentages ±SEM. […] (C) Effect of PPi supplementation on the viability of spermatozoa stored in commercial and custom made BTS extenders. Boar spermatozoa were preserved in BTS-IMV (IMV technologies, France) or BTS-HM (homemade) with and without 10 μM PPi for 7 days at room temperature. Sperm motilities were evaluated by observation under light microscopy at 37.5° C. […] Experiments were repeated twice.
Semen was collected from proven fertile adult Duroc boars 15-22 months of age under the guidance of approved Animal Care and Use Committee (ACUC) protocols of the University of Missouri-Columbia (UM-C). The boars were placed on a routine collection schedule of one collection per week. The sperm-rich fraction of ejaculate was collected into an insulated vacuum bottle. Sperm-rich fractions of ejaculates with greater than 85% motile spermatozoa were used. Semen volumes were determined with a graduated cylinder. Sperm concentrations were estimated by a hemocytometer (Fisher Scientific, Houston, Tex.). The percentage of motile spermatozoa was estimated at 38.5° C. by light microscopy at 250× magnification. […]

sperm diluted in BTS = details: added to sperm diluted in BTS, after 6 days of cooling; cited from earlier work

O=P(O)(O)OP(=O)(O)O [PPi, inorganic pyrophosphate]
content of metabolically active spermatozoa with polarized mitochondrial membranes (boar spermatozoa [1]; day 3, JC-1): augmented | percentage of live spermatozoa vs control spermatozoa (boar spermatozoa [1]; storage days 3 and 10, SYBR14/PI): no significant difference | chymotrypsin-like PGPH activity (Z-LLE-AMC), relative fluorescence ([2]; Add PPi treatment (10 μM PPi added at time of assay), day 3): 392.1 | chymotrypsin-like PGPH activity (Z-LLE-AMC), relative fluorescence ([2]; PPi+BTS (stored with 10 μM PPi), day 10): 388 | chymotrypsin-like proteasomal core activity (Z-LLVY-AMC), fluorescence intensity [3]: 110.8-121.5 | deubiquitinating activity (ubiquitin-AMC), relative fluorescence [4]: 138.9 | chymotrypsin-like activity (Z-LLL-AMC) ([5]; 10 μM PPi treatments vs no PPi, 1 h measurement): no differences between treatments | polyspermy ([6]; 10 μM PPi in IVF medium, 1×10^6 spermatozoa/ml): 84.9% | percentage of total and polyspermic fertilization at reduced sperm concentrations ([6]; 10 μM PPi, 1, 2 and 5×10^5 spermatozoa/ml, significant at 5×10^5): augmented | fertilization rates with excess PPi ([6]; 100-500 μM PPi added into IVF medium): decreased fertilization rates in a dose-dependent manner | rates of total and polyspermic fertilization ([6]; increasing concentrations of PPi (up to 10 μM) in IVF medium, 1×10^6 spermatozoa/ml): increased significantly and progressively | combined (mono+polyspermic) fertilization rate, spermatozoa preserved with PPi ([6]; preserved with 10 μM PPi in BTS 3-4 days, IVF with or without PPi (FIG. 7D third, fourth column)): highest | fertilization ([6]; spermatozoa stored in BTS-IMV with 10 μM PPi for 3 days, below 70% without PPi): ~100% | fertilization rates, spermatozoa stored without PPi, PPi added during IVF ([6]; stored 3-4 days in BTS without PPi, IVF with 10 μM PPi (FIG. 7D second column)): higher | percentage of acrosome-reacted spermatozoa ([7]; 20 μM PPi vs 0-15 μM PPi): significantly higher | mean number of spermatozoa bound to ZP ([7]; increasing concentrations of PPi, 30 min, 5×10^5 spermatozoa/ml): decreased slightly, but not significantly | sperm motility (boar spermatozoa [8]): Higher

CC(C)C[C@@H](C=O)NC(=O)[C@H](CC(C)C)NC(=O)[C@H](CC(C)C)NC(=O)OCc1ccccc1 [MG132, reference compound] (Cbz-Leu-Leu-Leu-aldehyde)
chymotrypsin-like activity in spermatozoa ([5]; 10 μM MG132 added before assay, day 3): low

prostaglandin F2α [PGF2α]
sperm viability and motility (sperm diluted in BTS): maintained better sperm viability and motility
